Values of other authors as cited in patent US20130195827A1, “NUTRIGENOMIC METHODS TO OVERCOME CARBOHYDRATE BINGEING AND OVEREATING” (priority 2011, published 2013).

Columns and labels:
lipolysis = details: in vitro, p<0.01

Row | Molecule | basal rate of lipolysis (lipolysis) | increase of leptin secretion (leptin secretion) [%]
1 | C[C@]12CCC(=O)C=C1CC[C@@H]1[C@@H]2[C@@H](O)C[C@@]2(C)[C@H]1CC[C@]2(O)C(=O)CO [cortisol] | significantly reduced | 
2 | Insulin: hormone insulin |  | 25
